The values that follow are results of earlier work, collected in PMC7766225, “Structure-Based Discovery and Bioactivity Evaluation of Novel Aurora-A Kinase Inhibitors as Anticancer Agents via Docking-Based Comparative Intermolecular Contacts Analysis (dbCICA)” (Molecules, 2020).

Like-named read-outs stand apart in the source and are kept apart here.

For the data set, the target named is T1, Aurora-A kinase (Homo sapiens, UniProt O14965).
T1 construct: purchased Invitrogen (Carlsbad, CA, USA)
T1 sequence (O14965 1-403): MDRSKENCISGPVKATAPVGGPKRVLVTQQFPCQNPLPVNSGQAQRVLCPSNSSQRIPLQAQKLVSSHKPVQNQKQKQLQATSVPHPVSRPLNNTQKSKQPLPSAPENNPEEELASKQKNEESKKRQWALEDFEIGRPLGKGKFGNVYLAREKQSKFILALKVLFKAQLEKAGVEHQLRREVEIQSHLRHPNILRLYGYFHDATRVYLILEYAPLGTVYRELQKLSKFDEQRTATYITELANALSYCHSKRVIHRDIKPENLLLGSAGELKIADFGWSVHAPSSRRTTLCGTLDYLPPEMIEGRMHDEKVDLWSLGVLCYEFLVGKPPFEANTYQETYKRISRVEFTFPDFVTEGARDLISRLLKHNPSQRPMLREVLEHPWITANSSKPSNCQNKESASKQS
The conditions noted are these: Table S1, ChEMBL, cited from earlier work.

`CCN(CCO)CCCOc1cc2ncnc(Nc3cc(CC(=O)Nc4cccc(F)c4F)[nH]n3)c2cc1OC` [Compound 19]: the Ki (ref Mortlock, et al., 2007) is 360 nM.
On to `Cc1cc(Nc2nc(-c3ccncc3)nc3ccccc23)n[nH]1` [Compound 29], for which, where the note is “ref Bebbington, et al., 2009”, the Ki is 81 nM.
As for `COc1cc2c(Nc3cc(CC(=O)Nc4cccc(F)c4F)[nH]n3)ncnc2cc1OCCCN1CCC(CCO)CC1` [Compound 14], the Ki (ref Mortlock, et al., 2007) was 280 nM.
As to `CCC(=O)Nc1ccc(Sc2nc(Nc3cc(C)[nH]n3)cc(N3CCOCC3)n2)cc1` [Compound 58], for the setting “ref Bebbington, et al., 2009”, the Ki is 1.7 nM.
With `CCCN(CCO)CCCOc1ccc2c(Nc3cc(CC(=O)Nc4cccc(F)c4)[nH]n3)ncnc2c1` [Compound 25], the Ki (ref Mortlock, et al., 2007) was 980 nM.
With `COc1cc2c(Nc3cc(CC(=O)Nc4cccc(F)c4F)[nH]n3)ncnc2cc1OCCCN1CCN(CCO)CC1` [Compound 12], for the setting “ref Mortlock, et al., 2007”, the Ki is 55 nM.
With `CC(=O)Nc1ccc(Sc2nc(C)cc(Nc3cc(C)[nH]n3)n2)cc1` [Compound 50], for the setting “ref Bebbington, et al., 2009”, the Ki is 18 nM.
`COc1cc2c(Nc3cc(CC(=O)Nc4ccccc4F)[nH]n3)ncnc2cc1OCCCN1CCC(CO)CC1` [Compound 2]: where the note is “ref Mortlock, et al., 2007”, the Ki was 1400 nM.
Consider `COc1cc2c(Nc3cc(CC(=O)Nc4cc(F)cc(F)c4)[nH]n3)ncnc2cc1OCCCN1CCC(CO)CC1` [Compound 6], for which the Ki (ref Mortlock, et al., 2007) was 230 nM.
Regarding `CC(=O)Nc1ccc(Sc2nc(Nc3cc(C)[nH]n3)cc(-c3ccccc3)n2)cc1` [Compound 51], the Ki (ref Bebbington, et al., 2009) is 2.4 nM.
For the molecule `CCC(=O)Nc1ccc(Sc2nc(Nc3cc(C)[nH]n3)cc(N3CCC3)n2)cc1` [Compound 56], the Ki (ref Bebbington, et al., 2009) was 2.4 nM.
As to `CCC(=O)Nc1ccc(Sc2nc(Nc3cc(C)[nH]n3)cc(N3CCNCC3)n2)cc1` [Compound 59], the Ki (ref Bebbington, et al., 2009) was 3.7 nM.
For the molecule `CC(=O)Nc1ccc(Sc2nccc(Nc3cc(C)[nH]n3)n2)cc1` [Compound 49], under “ref Bebbington, et al., 2009”, the Ki was 86 nM.
With `CC(=O)Nc1ccc(Sc2nc(Nc3cc(C)[nH]n3)c3ccccc3n2)cc1` [Compound 28], the Ki (ref Pollard and Mortimore, 2009) is 4 nM.
Take `CCCN(CCO)CCCOc1ccc2c(Nc3cc(CC(=O)Nc4cccc(F)c4F)[nH]n3)ncnc2c1` [Compound 23]: the Ki (ref Mortlock, et al., 2007) was 350 nM.
Take `CCC(=O)Nc1ccc(Sc2nc(Nc3cc(C)[nH]n3)cc(N3CCN(C(C)(C)C)CC3)n2)cc1` [Compound 61]: the Ki (ref Bebbington, et al., 2009) is 1.3 nM.
In the case of `COc1cc2c(Nc3cc(CC(=O)Nc4cccc(F)c4F)[nH]n3)ncnc2cc1OCCCN(CCO)CC(C)C` [Compound 21], the Ki (ref Mortlock, et al., 2007) is 18 nM.
For `CCC(=O)Nc1ccc(Sc2nc(Nc3cc(C)[nH]n3)cc(-c3cccnc3)n2)cc1` [Compound 55], the Ki (ref Bebbington, et al., 2009) is 3.9 nM.
Take `Cc1nc(C)c(-c2ccnc(Nc3ccc(N)cc3)n2)s1` [Compound 67]: the Ki (ref Wang, et al., 2010) was 31 nM.
As to `COc1cc2c(Nc3cc(CC(=O)Nc4cccc(F)c4)[nH]n3)ncnc2cc1OCCCNCCO` [Compound 15], the Ki (ref Mortlock, et al., 2007) was 690 nM.
Turning to `CCC(=O)Nc1ccc(Sc2nc(Nc3cc(C)[nH]n3)cc(N3CCCCC3)n2)cc1` [Compound 57], the Ki (ref Bebbington, et al., 2009) is 1.6 nM.
Consider `COc1cc2c(Nc3cc(CC(=O)Nc4cccc(F)c4F)[nH]n3)ncnc2cc1OCCCN1CCC(O)CC1` [Compound 13], for which, where the note is “ref Mortlock, et al., 2007”, the Ki was 220 nM.
With `CCN(CCO)CCCOc1cc2ncnc(Nc3cc(CC(=O)Nc4cccc(F)c4)[nH]n3)c2cc1OC` [Compound 17], the Ki (ref Mortlock, et al., 2007) is 190 nM.
Regarding `COc1cc2c(Nc3cc(CC(=O)Nc4cccc(Cl)c4)[nH]n3)ncnc2cc1OCCCN1CCC(CO)CC1` [Compound 7], the Ki (ref Mortlock, et al., 2007) is 450 nM.
On to `COc1cc2c(Nc3cc(CC(=O)Nc4cccc(C#N)c4)[nH]n3)ncnc2cc1OCCCN1CCC(CO)CC1` [Compound 8], for which the inhibitory constant (Ki) (ref Mortlock, et al., 2007) is 2600 nM.
As to `COc1cc2c(Nc3cc(CC(=O)Nc4cccc(C(F)(F)F)c4)[nH]n3)ncnc2cc1OCCCN1CCC(CO)CC1` [Compound 11], the Ki (ref Mortlock, et al., 2007) is 510 nM.
Regarding `Cc1nc(C)c(-c2ccnc(Nc3ccc(N(C)C)cc3)n2)s1` [Compound 65], the Ki (ref Wang, et al., 2010) was 6.9 nM.
Turning to `COc1cccc(NC(=O)Cc2cc(Nc3ncnc4cc(OCCCN5CCC(CO)CC5)c(OC)cc34)n[nH]2)c1` [Compound 10], the Ki (ref Mortlock, et al., 2007) is 1900 nM.
`CCC(=O)Nc1ccc(Sc2nc(Nc3cc(C)[nH]n3)cc(N3CCN(C)CC3)n2)cc1` [Compound 60]: where the note is “ref Bebbington, et al., 2009”, the Ki is 1.6 nM.
Take `COc1cc2c(Nc3cc(CC(=O)Nc4cccc(O)c4)[nH]n3)ncnc2cc1OCCCN1CCC(CO)CC1` [Compound 9]: the Ki (ref Mortlock, et al., 2007) is 4000 nM.
For `CCCN(CCO)CCCOc1cc2ncnc(Nc3cc(CC(=O)Nc4cccc(F)c4)[nH]n3)c2cc1OC` [Compound 18], the Ki (ref Mortlock, et al., 2007) was 220 nM.

What is called Ki is a dissociation constant, usually derived from enzyme kinetics or from competition with a known ligand.
